ChEMBL document CHEMBL1201862, “PubChem BioAssay data set” (2004)
Active and inactive are the calls of the source.

Columns and labels:
[1] = biological target: T1, Sentrin-specific protease 8 (Homo sapiens, UniProt Q96LD8); type: functional
T1 sequence (Q96LD8 whole entry): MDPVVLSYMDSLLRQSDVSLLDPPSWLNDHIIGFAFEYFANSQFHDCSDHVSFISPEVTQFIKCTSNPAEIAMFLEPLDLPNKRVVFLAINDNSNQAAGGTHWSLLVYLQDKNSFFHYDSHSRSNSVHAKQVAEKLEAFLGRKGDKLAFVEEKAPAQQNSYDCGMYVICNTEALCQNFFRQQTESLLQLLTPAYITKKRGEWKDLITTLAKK

INS1 = test: INS-1E survival protection against cytokine death – cell-based, luminescence, retest, dose response (AID 449756); type: functional; conditions: Rattus norvegicus;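 also: cell death triggered by IL-1 beta plus TNF-alpha plus IFN-gamma mixture; protective hits raise ATP signal compared with cytokine alone wells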
[2] = biological target: T1, Sentrin-specific protease 8; type: functional; remark: listed apart in the source
[3] = biological target: T2, Corticotropin-releasing factor receptor 2/Corticotropin-releasing factor-binding protein (Homo sapiens, UniProt P24387+Q13324); test: activators of CRF receptor 2 with binding protein – uHTS hits, confirmation (AID 602473); type: functional; conditions: read-out: EC50_Mean
T2 sequence (Q13324 whole entry): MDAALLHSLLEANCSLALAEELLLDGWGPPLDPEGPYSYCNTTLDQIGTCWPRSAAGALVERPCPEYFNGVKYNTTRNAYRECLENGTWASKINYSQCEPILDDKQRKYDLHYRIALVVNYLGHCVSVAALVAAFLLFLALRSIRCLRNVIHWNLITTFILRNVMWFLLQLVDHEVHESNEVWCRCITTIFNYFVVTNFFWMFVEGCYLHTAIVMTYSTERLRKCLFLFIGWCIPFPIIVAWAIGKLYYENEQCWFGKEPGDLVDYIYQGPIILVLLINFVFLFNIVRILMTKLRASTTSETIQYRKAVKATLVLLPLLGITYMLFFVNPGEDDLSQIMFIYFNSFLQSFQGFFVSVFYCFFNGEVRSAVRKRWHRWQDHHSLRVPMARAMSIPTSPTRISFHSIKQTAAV
T2 sequence (P24387 whole entry): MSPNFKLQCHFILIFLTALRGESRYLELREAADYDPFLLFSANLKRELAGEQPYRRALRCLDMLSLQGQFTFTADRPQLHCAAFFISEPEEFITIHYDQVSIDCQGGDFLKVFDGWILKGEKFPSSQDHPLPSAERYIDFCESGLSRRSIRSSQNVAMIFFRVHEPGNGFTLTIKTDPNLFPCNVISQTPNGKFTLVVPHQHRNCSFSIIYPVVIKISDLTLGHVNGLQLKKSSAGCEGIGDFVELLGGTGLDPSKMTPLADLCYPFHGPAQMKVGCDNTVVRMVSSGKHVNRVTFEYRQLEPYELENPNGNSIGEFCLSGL

[4] = Fluorescence-based cell-based high throughput dose response assay for inhibitors of the interaction of nucleotide-binding oligomerization domain containing 2 (NOD2) and the receptor-interacting serine-threonine kinase 2 (RIPK2).; type: functional; conditions: Homo sapiens
Beta Lactamase = Beta Lactamase (Pseudomonas aeruginosa, UniProt Q932Y6); test: BLA reporter interference, concentration series – BLA reporter cells, FRET fluorescence, artefact control for NOD2-RIPK2 interaction inhibitor project, dose response (AID 651552); type: functional, cell-based
Sequence of Beta Lactamase (Q932Y6 whole entry): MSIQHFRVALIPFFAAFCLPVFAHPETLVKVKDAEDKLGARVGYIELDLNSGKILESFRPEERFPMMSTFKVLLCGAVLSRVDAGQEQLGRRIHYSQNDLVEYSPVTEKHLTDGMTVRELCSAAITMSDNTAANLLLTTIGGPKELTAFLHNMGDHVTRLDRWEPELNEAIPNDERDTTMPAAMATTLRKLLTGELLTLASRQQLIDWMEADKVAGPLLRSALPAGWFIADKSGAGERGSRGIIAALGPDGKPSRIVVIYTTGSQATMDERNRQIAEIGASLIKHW

[5] = biological target: Mitochondrial peptide methionine sulfoxide reductase (Bos taurus, UniProt P54149); test: Absorbance-based biochemical high throughput dose response assay for activators of Methionine sulfoxide reductase A (MsrA).; type: functional
Sequence of Mitochondrial peptide methionine sulfoxide reductase (P54149 whole entry): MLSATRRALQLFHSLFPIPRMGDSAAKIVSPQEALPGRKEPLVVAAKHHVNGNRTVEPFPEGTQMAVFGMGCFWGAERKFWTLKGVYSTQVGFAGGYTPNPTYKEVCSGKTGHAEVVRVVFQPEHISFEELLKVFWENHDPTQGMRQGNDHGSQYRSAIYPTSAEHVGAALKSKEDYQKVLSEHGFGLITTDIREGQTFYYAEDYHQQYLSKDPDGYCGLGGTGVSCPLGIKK

[6] = biological target: Tyrosyl-DNA phosphodiesterase 2 (Homo sapiens, UniProt O95551); test: potency against TDP2 phosphodiesterase activity – biochemical, epi absorbance, IC50, dose response (AID 743297)
Sequence of Tyrosyl-DNA phosphodiesterase 2 (O95551 whole entry, the tested form may be a part): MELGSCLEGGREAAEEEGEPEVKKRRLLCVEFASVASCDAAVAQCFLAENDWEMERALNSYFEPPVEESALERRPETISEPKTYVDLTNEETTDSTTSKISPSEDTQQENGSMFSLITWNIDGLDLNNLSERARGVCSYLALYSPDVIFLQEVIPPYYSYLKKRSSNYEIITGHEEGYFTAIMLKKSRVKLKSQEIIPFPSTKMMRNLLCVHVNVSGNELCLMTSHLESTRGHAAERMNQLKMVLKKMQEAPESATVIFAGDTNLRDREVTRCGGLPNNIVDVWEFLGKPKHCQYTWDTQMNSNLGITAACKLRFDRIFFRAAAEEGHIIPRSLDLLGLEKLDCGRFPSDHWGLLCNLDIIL

[7] = biological target: Hepatocyte nuclear factor 4-alpha (Homo sapiens, UniProt P41235); type: functional, cell-based;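 also: biochemical luminescence-based dose-response counterscreen measuring inhibition of HNF4 dimerization, run alongside a screen for blockers of ABHD5–perilipin-5 interaction; split luciferase complementation of HNF4 fusion proteins in cell lysate measuring dimerization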
Sequence of Hepatocyte nuclear factor 4-alpha (P41235 whole entry, the tested form may be a part): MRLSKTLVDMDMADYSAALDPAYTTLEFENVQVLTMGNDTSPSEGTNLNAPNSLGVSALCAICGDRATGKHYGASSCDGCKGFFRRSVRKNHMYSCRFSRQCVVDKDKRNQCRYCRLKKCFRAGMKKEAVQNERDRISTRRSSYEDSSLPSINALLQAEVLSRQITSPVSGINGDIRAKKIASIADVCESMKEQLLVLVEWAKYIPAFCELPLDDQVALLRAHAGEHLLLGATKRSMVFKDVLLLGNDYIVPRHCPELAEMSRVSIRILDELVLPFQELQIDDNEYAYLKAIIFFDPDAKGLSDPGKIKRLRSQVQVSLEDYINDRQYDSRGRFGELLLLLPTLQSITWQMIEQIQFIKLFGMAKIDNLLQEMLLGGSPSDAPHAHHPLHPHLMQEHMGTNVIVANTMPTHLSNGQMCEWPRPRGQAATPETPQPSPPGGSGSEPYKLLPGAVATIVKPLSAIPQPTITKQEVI

[8] = cAMP pathway inhibition in counterscreen cell line – TR-FRET cAMP detection, counter-screen for MC4R biased antagonist project, dose response (AID 602305); type: functional, cell-based;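 also: U2OS cells stimulated with forskolin near its EC80 as the cAMP inducer; potency is for inhibition of forskolin-stimulated cAMP signaling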
[9] = reduction of Shn3 3'UTR-driven luciferase in osteoblasts – cell-based, Clone20 osteoblasts, firefly luciferase, cherry-picked, dose response (AID 624132); type: functional;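 also: firefly luciferase luminescence from reporter carrying the Shn3 3'UTR in osteoblasts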
[10] = loss of viability in HepG2 cells – cell-based, CellTiter-Glo, cherry-picked, cytotoxicity control for Shn3 inhibitor project, dose response (AID 624134); type: functional
Melanocortin receptor 4 [11] = biological target: T3, Melanocortin receptor 4 (Homo sapiens, UniProt P32245); test: inhibitors of MC4R cAMP signaling – cell-based, TR-FRET, biased antagonists, dose response (AID 602298); type: functional;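 also: antagonist potency against agonist-stimulated cAMP production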
T3 sequence (P32245 whole entry): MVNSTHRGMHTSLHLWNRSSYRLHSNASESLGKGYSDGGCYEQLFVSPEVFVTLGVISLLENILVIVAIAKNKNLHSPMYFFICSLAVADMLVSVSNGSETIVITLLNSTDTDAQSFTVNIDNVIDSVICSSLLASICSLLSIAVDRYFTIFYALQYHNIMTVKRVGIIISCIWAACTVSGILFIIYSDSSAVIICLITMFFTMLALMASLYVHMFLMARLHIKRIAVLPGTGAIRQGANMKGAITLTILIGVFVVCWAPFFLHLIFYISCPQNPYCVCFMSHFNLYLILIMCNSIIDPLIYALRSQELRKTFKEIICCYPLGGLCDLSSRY

[12] = non-specific 3'UTR reporter inhibition in Clone20-Shn3RL – cell-based, Renilla luciferase, cherry-picked, counter-screen for Shn3 inhibitor project, dose response (AID 624133); type: functional
Melanocortin receptor 4 [13] = biological target: T3, Melanocortin receptor 4; type: functional, cell-based
[14] = activation of miR-122 Renilla sensor silencing – cell-based, Huh7 psiCHECK-miR122, Renilla luciferase, cherry-picked, dose response (AID 651956); type: functional;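 also: huh7 hepatoma cells stably carrying a psiCHECK-2 miR-122 sensor plasmid; renilla luciferase signal reporting endogenous miR-122 activity after 48 h compound exposure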
[15] = biological target: T4, DNA repair protein RAD52 homolog (Homo sapiens, UniProt P43351); type: functional, biochemical
T4 sequence (P43351 whole entry): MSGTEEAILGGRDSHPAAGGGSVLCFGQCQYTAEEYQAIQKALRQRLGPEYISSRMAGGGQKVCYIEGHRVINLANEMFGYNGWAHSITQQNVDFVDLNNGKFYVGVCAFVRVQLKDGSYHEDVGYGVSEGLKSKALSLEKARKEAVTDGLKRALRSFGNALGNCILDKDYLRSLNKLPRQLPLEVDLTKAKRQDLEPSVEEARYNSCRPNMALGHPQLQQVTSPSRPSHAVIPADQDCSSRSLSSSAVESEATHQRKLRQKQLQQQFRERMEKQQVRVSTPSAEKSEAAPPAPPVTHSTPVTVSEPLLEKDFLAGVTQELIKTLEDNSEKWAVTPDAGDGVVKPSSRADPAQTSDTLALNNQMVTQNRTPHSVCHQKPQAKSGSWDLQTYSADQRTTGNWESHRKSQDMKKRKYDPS

[16] = DRD fibroblast viability loss – cell-based, non-viral oncogenic, luminescence, dose response (AID 1934); type: functional; conditions: Homo sapiens
H4 = test: Luminescence Cell-Based Dose Response HTS to Identify Activators of 5'UTR Stem-Loop Driven Prion Protein mRNA Translation in H4 Neuroglioblastoma Cells. [Related pubchem assays: 1829 (Project Summary), 1814 (Primary HTS)]; type: functional; conditions: Homo sapiens
[17] = Luminescence Cell-Based Dose Confirmation HTS to Identify Activators of 5'UTR Stem-Loop Driven Alpha-Synuclein mRNA Translation in H4 Neuroglioblastoma Cells. [Related pubchem assays: 1829 (Project Summary), 1814 (Primary HTS)]; type: functional
BJ [18] = test: BJ-TERT-LT-ST fibroblast viability loss – cell-based, RAS-independent, luminescence, dose response (AID 1935); type: functional; conditions: Homo sapiens;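 also: BJ fibroblasts immortalized with TERT plus LT and ST oncogenes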
cells [19] = type: functional, cell-based
[20] = Trypanosoma cruzi growth suppression in host cells – NIH3T3 host cells, beta-gal luminescence, confirmation (AID 2044); type: functional, cell-based;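 also: intracellular parasites grown in NIH/3T3 mouse fibroblasts as host cells; luminescent beta-galactosidase reporter signal from transgenic T. cruzi replicating inside host cells; inhibitors lower the luminescence signal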
[21] = cytotoxicity toward MDA-MB-231 breast cancer cells – cell-based, CellTiter-Glo luminescence, cherry-pick, cytotoxicity control for RAD54 inhibitor project, dose response (AID 651692); type: functional
BJ [22] = test: cells; type: functional, cell-based; conditions: Homo sapiens
[23] = biological target: DNA repair and recombination protein RAD54-like (Homo sapiens, UniProt Q92698); test: RAD54 Holliday junction migration blockers – biochemical, fluorescence, cherry-picked samples, dose series, confirmation (AID 651657); type: functional
Sequence of DNA repair and recombination protein RAD54-like (Q92698 whole entry): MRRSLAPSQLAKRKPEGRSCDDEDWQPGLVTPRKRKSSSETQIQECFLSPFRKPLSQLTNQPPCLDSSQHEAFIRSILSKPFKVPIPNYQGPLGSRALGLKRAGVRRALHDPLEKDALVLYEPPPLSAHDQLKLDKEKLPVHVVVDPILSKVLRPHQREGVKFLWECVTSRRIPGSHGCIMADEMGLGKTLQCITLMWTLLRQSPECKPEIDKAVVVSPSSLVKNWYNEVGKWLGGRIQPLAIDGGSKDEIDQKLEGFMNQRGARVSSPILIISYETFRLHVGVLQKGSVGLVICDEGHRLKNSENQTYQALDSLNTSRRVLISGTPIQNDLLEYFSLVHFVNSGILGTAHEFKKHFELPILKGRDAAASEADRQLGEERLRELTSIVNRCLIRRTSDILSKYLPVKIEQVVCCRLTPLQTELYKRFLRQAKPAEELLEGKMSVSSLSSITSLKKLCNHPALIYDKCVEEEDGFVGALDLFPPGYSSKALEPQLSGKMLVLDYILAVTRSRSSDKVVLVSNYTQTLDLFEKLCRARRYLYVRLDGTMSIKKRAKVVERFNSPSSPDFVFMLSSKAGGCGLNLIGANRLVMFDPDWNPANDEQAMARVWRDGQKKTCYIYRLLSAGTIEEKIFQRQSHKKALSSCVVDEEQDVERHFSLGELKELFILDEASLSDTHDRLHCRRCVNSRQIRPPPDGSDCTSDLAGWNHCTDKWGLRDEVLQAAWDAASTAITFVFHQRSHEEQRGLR

BJ [24] = test: BJ-TERT fibroblast viability loss – cell-based, RAS-independent, luminescence, dose response (AID 1933); type: functional; conditions: Homo sapiens
[25] = Luminescence Cell-Based Dose Response HTS to Identify Activators of Luciferase Translation or Activity in H4 […] Cells. [Related pubchem assays: 1829 (Project Summary), 1814 (Primary HTS)]; type: functional
[26] = NIH3T3 cell viability loss – ATP luminescence, mouse fibroblasts, counter-screen, dose response (AID 2010); type: functional, cell-based;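 also: cells exposed to compound for about 90 hours before reading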
cells [27] = type: functional, cell-based; remark: listed apart in the source

COc1ccccc1N1C(C)=CC(=C(C#N)c2nc3ccccc3s2)C=C1C
IC50 [1]: 4.86 µM (active)
AC50 (INS1): 5.19 µM (active)
IC50 [2]: 9.58 µM (active)
EC50 [3]: 16.1 µM (active)

CC1OC2CC(=O)OC2C2=C1C(=O)c1c(O)cccc1C2=O (stereo not given)
IC50 [4]: 2.14 µM (active)
IC50 (Beta Lactamase): 38.2 µM (inactive)
EC50 [5]: 21 µM (inactive)
IC50 [6]: 12 µM (inactive)

CC(O)CC(=O)OC[C@]12CC[C@H]3[C@@](C)(CC[C@H]4C(C)(C)CCC[C@]34C)[C@@H]1CC(C1=CC(=O)OC1O)O2 (stereo not given in full)
IC50 [7]: 3.53 µM (active)
IC50 [8]: > 64.6 µM (inactive)
AC50 [9]: 3.75 µM (active)
AC50 [10]: 22.1 µM (active)
IC50 (Melanocortin receptor 4 [11]): 22 µM (inactive)
AC50 [12]: 5.5 µM (active)
EC50 (Melanocortin receptor 4 [13]): > 89.2 µM (inactive)

C/C=C/c1ccc([C@H]2[C@H](CO)N[C@H]2CN(CC(C)C)C(=O)c2ccccn2)cc1
AC50 [14]: 5.62 µM (active)

c1ccc2c(NCCc3c[nH]c4ccccc34)c3ccccc3nc2c1
AC50 [15]: 1.41 µM (active)
EC50 [16]: 7.86 µM (active)
EC50 (H4): > 120 µM (not active)
EC50 [17]: > 120 µM (not active)
EC50 (BJ [18]): 6.42 µM (inconclusive)
EC50 (cells [19]): 29.3 µM (active)
EC50 [20]: 1.43 µM (active)
AC50 [21]: 33.1 µM (active)
EC50 (BJ [22]): 8.56 µM (inconclusive)
AC50 [23]: 3.17 µM (active)
EC50 (BJ [24]): 4.9 µM (active)
EC50 [25]: 4.86 µM (active)
EC50 [26]: 11.9 µM (active)
EC50 (cells [27]): > 350 µM (not active)
